In patent publication US20220380378A1 (ESSA Pharma, Inc., priority 2021, published 2022):

What was measured:
androgen receptor (AR) = biological target: T1, androgen receptor (AR) (Homo sapiens, UniProt P10275, T878A); assay: Androgen-induced PSA (6.1 kb)-luciferase reporter assay in LNCaP cells (R1881 1 nM); type: cell-based; design: endogenous in cells; host or cells: LNCaP; details: 24 h, read-out: PSA-Luc IC50 Range
T1 sequence (P10275 1-920 T878A): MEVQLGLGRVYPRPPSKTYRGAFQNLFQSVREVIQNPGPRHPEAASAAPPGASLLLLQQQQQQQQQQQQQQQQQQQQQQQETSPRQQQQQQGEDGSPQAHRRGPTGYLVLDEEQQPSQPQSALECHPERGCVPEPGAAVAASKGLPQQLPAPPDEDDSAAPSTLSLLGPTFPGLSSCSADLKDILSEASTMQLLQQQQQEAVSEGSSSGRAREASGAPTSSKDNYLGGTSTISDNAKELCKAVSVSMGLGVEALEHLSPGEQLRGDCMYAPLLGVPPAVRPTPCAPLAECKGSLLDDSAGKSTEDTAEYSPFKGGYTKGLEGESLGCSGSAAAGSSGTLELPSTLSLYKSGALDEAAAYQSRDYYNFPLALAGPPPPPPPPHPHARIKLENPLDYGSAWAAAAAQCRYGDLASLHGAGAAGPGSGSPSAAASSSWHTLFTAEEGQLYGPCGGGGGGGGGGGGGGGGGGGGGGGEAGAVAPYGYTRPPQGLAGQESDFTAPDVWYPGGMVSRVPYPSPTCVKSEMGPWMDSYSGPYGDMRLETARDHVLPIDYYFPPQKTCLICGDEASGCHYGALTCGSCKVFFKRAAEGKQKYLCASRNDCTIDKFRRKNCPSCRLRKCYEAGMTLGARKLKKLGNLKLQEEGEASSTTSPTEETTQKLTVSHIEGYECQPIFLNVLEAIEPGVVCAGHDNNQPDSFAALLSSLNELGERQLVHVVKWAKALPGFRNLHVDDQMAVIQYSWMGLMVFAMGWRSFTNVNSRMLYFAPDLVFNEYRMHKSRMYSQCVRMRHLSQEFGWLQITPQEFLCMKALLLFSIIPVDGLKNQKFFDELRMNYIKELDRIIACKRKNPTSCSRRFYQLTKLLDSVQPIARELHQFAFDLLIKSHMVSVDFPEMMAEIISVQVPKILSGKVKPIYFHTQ
Method in brief: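 LNCaP cells transiently transfected with PSA (6.1 kb)-luciferase for 24 h, pretreated 1 h with compound or DMSO, then stimulated with 1 nM R1881 for 24 h. Firefly luciferase in lysates normalized to protein content; IC50 relative to R1881-induced vehicle activity.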

[1] = Microsomal stability assay, liver microsome half-life (human); type: in vitro ADME; details: pH 7.4; human liver microsomes 0.5 mg/mL, 1 μM compound, 37° C.; read-out: Liver microsome T1/2 Human
Excerpt: Microsomal Stability Assay: Microsomal stability assay is a widely used in vitro model to characterize the metabolic conversion by phase I enzymes, such as cytochrome P450 (CYP) enzymes. Since metabolism is known to be highly variable in different species, microsomal stability assay is commonly run in multiple species. Metabolic stability of testing compound can be evaluated using human, rat, mouse, or other animal liver or intestine microsomes to predict intrinsic clearance.
The assay was carried out in 96-well microtiter plates at 37° C. Reaction mixtures (25 μL) contained a final concentration of 1 μM test compound, 0.5 mg/mL liver microsomes protein, and 1 mM NADPH and/or 1 mM UDPGA (with alamethicin) in 100 mM potassium phosphate, pH 7.4 buffer with 3 mM MgCl2. The incubation was done with N=1, but duplicate incubation at each time point can be prepared if necessary. At each of the time points (for example, 0, 15, 30, and 60 minutes), 150 μL of quench solution (100% acetonitrile with 0.1% formic acid) with internal standard was transferred to each well. Besides the zero minute controls, mixtures containing the same components except the NADPH can also be prepared as the negative control. Verapamil was included as a positive control to verify assay performance. Plates were sealed, vortexed, and centrifuged at 4° C. for 15 minutes at 4000 rpm. The supernatant is transferred to fresh plates for LC/MS/MS analysis.
Summarized conditions: [Compound]=1 μM, [LM]=0.5 mg/mL, [NADPH]=1 mM and/or [UDPGA]=1 mM, Buffer=100 mM Potassium Phosphate, pH 7.4 with 3 mM MgCl2, Time=0, 15, 30, and 60 min, and Temperature=37° C.
All samples were analyzed on LC/MS/MS using an AB Sciex API 4000 instrument, coupled to a Shimadzu LC-20AD LC Pump system. Analytical samples were separated using a Waters Atlantis T3 dC18 reverse phase HPLC column (20 mm×2.1 mm) at a flow rate of 0.5 mL/min. The mobile phase consisted of 0.1% formic acid in water (solvent A) and 0.1% formic acid in 100% acetonitrile (solvent B).
The extent of metabolism is calculated as the disappearance of the test compound, compared to the 0-min time incubation. Initial rates are calculated for the compound concentration and used to determine half-life (t½). […]

Row | SMILES | IC50 (androgen receptor (AR)) | half-life at 1 μM [1]
1 | CS(=O)(=O)Nc1nccc(COCCc2cc(Cl)c(OCCCl)c(C#N)c2)n1 [Compound A5] | > 2 µM | 0.93 h
2 | CS(=O)(=O)Nc1nccc(OC2CCN(C(=O)c3cc(Cl)c(OCCCl)c(C#N)c3)CC2)n1 [Compound A6, N-(4-((1-(3-chloro-4-(2-chloroethoxy)-5-cyanobenzoyl)piperidin-4-yl)oxy)pyrimidin-2-yl)methanesulfonamide] | > 2 µM | > 2 h
3 | CS(=O)(=O)Nc1nccc(OCC23CC(C(=O)c4ccc(OCCCl)cc4)(C2)C3)n1 [Compound A7] | > 2 µM | 1.4 h
4 | CS(=O)(=O)Nc1nccc(OCC23CC(C(=O)c4cc(Cl)c(OCCCl)c(C#N)c4)(C2)C3)n1 [Compound A8] | > 2 µM | 0.161 h
5 | CS(=O)(=O)Nc1nccc(COc2nnc(-c3cc(Cl)c(OCCCl)c(C#N)c3)o2)n1 [Compound A37, N-(4-(((5-(3-chloro-4-(2-chloroethoxy)-5-cyanophenyl)-1,3,4-oxadiazol-2-yl)oxy)methyl)pyrimidin-2-yl)methanesulfonamide] | 0.5 to 2 µM | > 2 h
6 | CC(C)(c1ccc(OCc2ccnc(NS(C)(=O)=O)n2)cc1)c1cc(Cl)c2c(c1)OCCO2 [Compound A38] | > 2 µM | > 2 h
7 | CC(C)(c1ccc(-c2cnc3c(c2)C(NS(C)(=O)=O)CCC3)cc1)c1cc(Cl)c(OCCCl)c(C#N)c1 (stereo not drawn) [Compound A243] | > 2 µM | –
8 | CC1(NS(C)(=O)=O)CN(CCc2ccc3c(ccn3-c3cc(Cl)c(OCCCl)c(C#N)c3)c2)C1 [Compound A244] | > 2 µM | –
9 | CS(=O)(=O)NC1CCCN(CCc2ccc3c(ccn3-c3cc(Cl)c(OCCCl)c(C#N)c3)c2)C1 (stereo not drawn) [Compound A245] | > 2 µM | –
10 | CS(=O)(=O)NC12CC(COc3ccc4c(c3)CCCC4c3cc(Cl)c(OCCCl)c(C#N)c3)(C1)C2 (stereo not drawn) [Compound A247] | > 2 µM | –
11 | CS(=O)(=O)NCC1CCN1CCc1ccc2c(ccn2-c2cc(Cl)c(OCCCl)c(C#N)c2)c1 (stereo not drawn) [Compound A248] | > 2 µM | –
12 | CS(=O)(=O)N1CCC12CN(CCc1ccc3c(ccn3-c3cc(Cl)c(OCCCl)c(C#N)c3)c1)C2 [Compound A249] | > 2 µM | –
13 | CC(C)(c1ccc(OCc2ccnc(NS(C)(=O)=O)n2)cc1)c1cc(F)c(N2CCC2)c(C#N)c1 [Compound A251] | 0.5 to 2 µM | –
14 | CC1CN(c2c(F)cc(C(C)(C)c3ccc(OCc4ccnc(NS(C)(=O)=O)n4)cc3)cc2C#N)C1 [Compound A252] | 0.5 to 2 µM | –
15 | CC(C)(c1ccc(OCc2ccnc(NS(C)(=O)=O)n2)cc1)c1cc(F)c(N2CC(CO)C2)c(C#N)c1 [Compound A253] | > 2 µM | –
16 | CC(C)(c1ccc(-c2ccc3oc(NS(C)(=O)=O)nc3c2)cc1)c1cc(Cl)c(OCCCl)c(C#N)c1 [Compound A255] | 0.5 to 2 µM | –
17 | CC(C)(c1ccc(-c2cnc3oc(NS(C)(=O)=O)nc3c2)cc1)c1cc(Cl)c(OCCCl)c(C#N)c1 [Compound A256] | > 2 µM | –
18 | CC(C)(c1ccc(-c2cnc3nc(NS(C)(=O)=O)oc3c2)cc1)c1cc(Cl)c(OCCCl)c(C#N)c1 [Compound A257] | > 2 µM | –
19 | CC(C)(c1ccc(OCc2ccnc(NS(C)(=O)=O)n2)cc1)c1cc(Cl)c(OCC(O)CCl)c(C#N)c1 (stereo not drawn) [Compound A258] | > 2 µM | –
20 | CC(C)(c1ccc(OCc2ccnc(NS(C)(=O)=O)n2)cc1)c1cc(F)c(N2CC(O)C2)c(C#N)c1 [Compound A259] | < 0.5 µM | –
21 | CC1(C)CN(c2c(F)cc(C(C)(C)c3ccc(OCc4ccnc(NS(C)(=O)=O)n4)cc3)cc2C#N)C1 [Compound A260] | 0.5 to 2 µM | –
22 | CC(C)(c1ccc(OCc2ccnc(NS(C)(=O)=O)n2)cc1)c1cc(F)c(N2CCCCC2)c(C#N)c1 [Compound A261] | 0.5 to 2 µM | –
23 | CC(C)(c1ccc(-c2cc3cnc(NS(C)(=O)=O)nn3c2)cc1)c1cc(Cl)c(OCCCl)c(C#N)c1 [Compound A263] | > 2 µM | –
24 | C[C@H](Oc1ccc(C(C)(C)c2cc(Cl)c(OCCCl)c(C#N)c2)cc1)C12CC(NS(C)(=O)=O)(C1)C2 [Compound A265] | 0.5 to 2 µM | –
25 | CS(=O)(=O)N[C@H]1C[C@H](COc2ccc3c(c2)CCC3c2cc(Cl)c(OCCCl)c(C#N)c2)C1 (stereo partly drawn) [Compound A266] | 0.5 to 2 µM | –
26 | CC(C)(c1ccc(OCc2ccnc(NS(C)(=O)=O)n2)cc1)c1cc(Cl)c(N2CC3(CCC3)C2)c(C#N)c1 [Compound A267] | 0.5 to 2 µM | –

The next lines start with the values.

Row | IC50 (androgen receptor (AR)) | half-life at 1 μM [1] | SMILES
27 | 0.5 to 2 µM | – | COc1c(Cl)cc(C(C)(C)c2ccc(OCC34CC(NS(C)(=O)=O)(C3)C4)cc2)cc1C#N [Compound A268]
28 | 0.5 to 2 µM | – | CC(C)(c1ccc(OCC23CCC(NS(C)(=O)=O)(C2)C3)cc1)c1cc(Cl)c(OCCCl)c(C#N)c1 [Compound A271]
29 | 0.5 to 2 µM | – | CC(C)(c1ccc(OCC23CCC(NS(C)(=O)=O)(CC2)C3)cc1)c1cc(Cl)c(OCCCl)c(C#N)c1 [Compound A272]
30 | 0.5 to 2 µM | – | CC(C)(c1ccc(OCC23CCC(NS(C)(=O)=O)(CC2)CC3)cc1)c1cc(Cl)c(OCCCl)c(C#N)c1 [Compound A273]
31 | 0.5 to 2 µM | – | CC(C)(c1ccc(-c2ccc3sc(NS(C)(=O)=O)nc3c2)cc1)c1cc(Cl)c(OCCCl)c(C#N)c1 [Compound A275]
32 | 0.5 to 2 µM | – | COc1c(Cl)cc(C2CCc3cc(-c4ccc5nc(NS(C)(=O)=O)cnc5c4)ccc32)cc1C#N (stereo not drawn) [Compound A276]
33 | < 0.5 µM | – | CC(C)(c1ccc(OCC23CC(CNS(C)(=O)=O)(C2)C3)cc1)c1cc(Cl)c(OCCCl)c(C#N)c1 [Compound A277]
34 | 0.5 to 2 µM | – | CC(C)(c1ccc(-c2ccc3c(NS(C)(=O)=O)nccc3n2)cc1)c1cc(Cl)c(OCCCl)c(C#N)c1 [Compound A278]
35 | 0.5 to 2 µM | – | CC(C)(c1ccc(-c2cnc3nc(NS(C)(=O)=O)ccc3n2)cc1)c1cc(Cl)c(OCCCl)c(C#N)c1 [Compound A279]
36 | 0.5 to 2 µM | – | CC(C)(c1ccc(-c2cnc3c(NS(C)(=O)=O)nccc3n2)cc1)c1cc(Cl)c(OCCCl)c(C#N)c1 [Compound A280]
37 | > 2 µM | – | CC(C)(c1ccc(-c2ccc3oc(NS(C)(=O)=O)nc3n2)cc1)c1cc(Cl)c(OCCCl)c(C#N)c1 [Compound A281]
38 | > 2 µM | – | CC(C)(c1ccc(-c2ccc3nc(NS(C)(=O)=O)oc3n2)cc1)c1cc(Cl)c(OCCCl)c(C#N)c1 [Compound A282]
39 | 0.5 to 2 µM | – | CC(C)(c1ccc(OCc2ccnc(NS(C)(=O)=O)n2)cc1)c1cc(Cl)c(N2CCOCC2)c(C#N)c1 [Compound A283]
40 | 0.5 to 2 µM | – | CC(C)(c1ccc(OCC23CCN(S(C)(=O)=O)C(C2)C3)cc1)c1cc(Cl)c(OCCCl)c(C#N)c1 [Compound A284]
41 | 0.5 to 2 µM | – | CC(C)(c1ccc(OCC23CC(C2)N(S(C)(=O)=O)C3)cc1)c1cc(Cl)c(OCCCl)c(C#N)c1 [Compound A285]
42 | – | > 2 h | CC(C)(c1ccc(OC[C@H](O)CNS(C)(=O)=O)cc1)c1cc(Cl)c(OC[C@H](O)CCl)c(Cl)c1 [X, reference compound]
